Assay results from ChEMBL document CHEMBL1201862, “PubChem BioAssay data set” (2004).
Values joined by “and” are separate entries in the source; they are usually repeats but may differ in a detail not shown here. Identical values can stand only once. Active and inactive are the calls of the source. Unless noted, the rule behind the calls is not given here.

Experiments:
[1] = Luminescence Cell-Based Dose Retest to Confirm Inhibitors of Cancer Stem Cells. [Related pubchem assays (depositor defined):AID2717, AID2721]; type: functional; settings: Homo sapiens
[2] = viability loss of HMLE_sh_eGFP cells – cell-based, luminescence, counter-screen for HMLE_sh_ECad selective toxicity project, dose response (AID 463074); type: functional, Homo sapiens;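 also: HMLE human mammary epithelial cells expressing control shRNA against eGFP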
Phospholipase D1 = Phospholipase D1 (Homo sapiens, UniProt Q13393); assay: PLD1 purified enzyme concentration response. [Related pubchem assays (depositor defined):AID588854]; type: functional
Sequence of Phospholipase D1 (Q13393 whole entry): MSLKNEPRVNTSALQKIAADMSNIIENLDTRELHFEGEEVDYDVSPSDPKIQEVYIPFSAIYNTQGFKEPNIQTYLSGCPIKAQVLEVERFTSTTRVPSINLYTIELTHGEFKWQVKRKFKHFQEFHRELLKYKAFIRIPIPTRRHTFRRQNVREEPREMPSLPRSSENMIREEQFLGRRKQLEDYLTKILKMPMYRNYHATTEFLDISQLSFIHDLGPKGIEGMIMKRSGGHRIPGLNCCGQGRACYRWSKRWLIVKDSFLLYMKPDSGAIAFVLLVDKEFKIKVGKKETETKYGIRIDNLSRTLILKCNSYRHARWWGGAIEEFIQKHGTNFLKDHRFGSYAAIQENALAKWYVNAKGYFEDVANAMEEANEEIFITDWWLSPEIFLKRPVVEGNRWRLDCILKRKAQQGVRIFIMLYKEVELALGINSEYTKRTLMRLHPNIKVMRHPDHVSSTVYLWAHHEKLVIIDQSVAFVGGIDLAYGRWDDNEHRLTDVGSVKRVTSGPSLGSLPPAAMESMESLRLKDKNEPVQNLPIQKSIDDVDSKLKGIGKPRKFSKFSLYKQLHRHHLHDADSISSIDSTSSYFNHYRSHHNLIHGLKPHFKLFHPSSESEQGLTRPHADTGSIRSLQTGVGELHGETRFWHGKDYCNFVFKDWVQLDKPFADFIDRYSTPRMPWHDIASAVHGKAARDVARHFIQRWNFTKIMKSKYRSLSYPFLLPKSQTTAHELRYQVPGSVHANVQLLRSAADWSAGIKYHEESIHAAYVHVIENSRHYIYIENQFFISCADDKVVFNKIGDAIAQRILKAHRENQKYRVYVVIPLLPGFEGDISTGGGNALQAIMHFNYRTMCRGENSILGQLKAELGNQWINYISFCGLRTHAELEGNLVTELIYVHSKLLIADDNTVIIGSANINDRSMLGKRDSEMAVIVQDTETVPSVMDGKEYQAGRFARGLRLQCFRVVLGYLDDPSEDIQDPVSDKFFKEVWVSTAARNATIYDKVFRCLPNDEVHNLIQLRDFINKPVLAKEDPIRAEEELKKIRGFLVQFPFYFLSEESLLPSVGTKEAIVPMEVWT

[3] = restored growth of temperature-sensitive Burl-1 yeast – whole organism, S. cerevisiae, Burl-1 ts mutant, luminescence, counter-screen for SUMOylation pathway inhibitor project, dose response (AID 463199); type: functional
[4] = molecular target: Lysine-specific demethylase 4C (Homo sapiens, UniProt Q9H3R0); assay: inhibition of JMJD2C H3K9me3 demethylation – biochemical, DELFIA europium, cherry-picked samples, dose response (AID 488835); type: functional
Sequence of Lysine-specific demethylase 4C (Q9H3R0 whole entry): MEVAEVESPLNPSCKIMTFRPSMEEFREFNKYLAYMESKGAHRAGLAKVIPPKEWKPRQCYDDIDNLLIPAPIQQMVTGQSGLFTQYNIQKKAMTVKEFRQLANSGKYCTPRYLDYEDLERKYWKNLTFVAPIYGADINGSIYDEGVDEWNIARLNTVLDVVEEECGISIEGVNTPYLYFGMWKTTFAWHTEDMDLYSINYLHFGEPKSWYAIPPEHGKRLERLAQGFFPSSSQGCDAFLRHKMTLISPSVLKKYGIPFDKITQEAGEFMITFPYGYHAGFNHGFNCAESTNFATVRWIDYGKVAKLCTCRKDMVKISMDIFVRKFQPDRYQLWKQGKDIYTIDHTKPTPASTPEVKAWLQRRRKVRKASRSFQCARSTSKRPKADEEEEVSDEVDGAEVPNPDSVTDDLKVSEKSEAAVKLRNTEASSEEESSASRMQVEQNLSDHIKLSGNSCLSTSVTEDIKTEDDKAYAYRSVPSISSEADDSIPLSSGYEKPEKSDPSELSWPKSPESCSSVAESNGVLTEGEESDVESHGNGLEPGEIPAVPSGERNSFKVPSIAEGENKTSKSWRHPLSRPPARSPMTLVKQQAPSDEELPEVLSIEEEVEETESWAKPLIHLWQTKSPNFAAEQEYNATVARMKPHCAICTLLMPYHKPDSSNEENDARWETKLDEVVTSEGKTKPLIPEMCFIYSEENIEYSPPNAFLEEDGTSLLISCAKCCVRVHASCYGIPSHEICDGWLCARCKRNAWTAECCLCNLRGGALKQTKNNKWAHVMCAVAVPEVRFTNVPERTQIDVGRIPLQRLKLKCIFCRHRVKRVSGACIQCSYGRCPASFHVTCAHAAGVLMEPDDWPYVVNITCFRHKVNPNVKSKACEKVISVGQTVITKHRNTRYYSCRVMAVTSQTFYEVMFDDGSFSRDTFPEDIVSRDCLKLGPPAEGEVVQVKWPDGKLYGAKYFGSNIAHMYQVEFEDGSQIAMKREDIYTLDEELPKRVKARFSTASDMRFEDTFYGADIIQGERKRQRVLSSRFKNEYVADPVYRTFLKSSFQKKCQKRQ

Vero = assay: cells; type: functional, cell-based; settings: Chlorocebus sabaeus
[5] = A Cell-Based Counter Screen testing Compounds that Inhibit VEEV TC-83, in strain KU V3526.; type: functional
[6] = A Cell-Based Confirmatory Screen for Compounds that Inhibit VEEV, TC-83 (8).; type: functional
[7] = A Cell-Based Confirmatory Screen for Compounds that Inhibit VEEV, TC-83 (2).; type: functional
[8] = A Cell-Based Confirmatory Screen for Compounds that Inhibit VEEV, TC-83 (3).; type: functional
[9] = A Cell-Based Confirmatory Screen for Compounds that Inhibit VEEV, TC-83 (6).; type: functional
[10] = A Cell-Based Confirmatory Screen for Compounds that Inhibit VEEV TC-83 (4).; type: functional
[11] = A Cell-Based Confirmatory Screen for Compounds that Inhibit VEEV, TC-83 (7).; type: functional

COc1ccc(C(=O)NNc2ccccc2)cc1
AC50 [1]: 9.98 µM (active) | AC50 [2]: 21.4 µM (active)

O=C(NCCN1CCC2(CC1)C(=O)NCN2c1ccccc1)c1cnc2ccccc2c1
IC50 (Phospholipase D1): 20 µM (active)

O=C(CNC(=O)c1ccco1)OCC(=O)c1cccc2ccccc12
AC50 [3]: 54.6 µM (active)

Cc1ccc(NN=Nc2nc3c(=O)n(C)c(=O)n(C)c3[nH]2)cc1
AC50 [4]: 24.7 µM (active)

CCN1CCN(Cc2nc3ccc([N+](=O)[O-])cc3c(=O)n2-c2ccccc2F)CC1
IC50 (Vero): 1.91 µM (active) | IC50 [5]: 0.97 µM (active) | IC50 [6]: 810 nM (active) and 695 nM (active) | IC50 [7]: 0.97 µM (active) | IC50 [8]: < 0.96 µM (active) | IC50 [9]: 1.01 µM (active) | IC50 [10]: 0.67 µM (active) | IC50 [11]: 0.81 µM (active)
